Data reported in patent US10294202B2, “Pyrrolidinones as herbicides” (FMC Corporation, priority 2013, dated 2019).

Key:
soybean = assay: Test E preemergence herbicide test; format: in vivo, Glycine max; set-up: key: 0 = no effect, 100 = complete control
Excerpt: (§1) Seeds of plant species selected from corn (Zea mays), soybean (Glycine max), velvetleaf (Abutilon theophrasti), lambsquarters (Chenopodium album), wild poinsettia (Euphorbia heterophylla), pigweed, palmer (palmer pigweed, Amaranthus palmeri), waterhemp (common waterhemp, Amaranthus rudis), surinam grass (Brachiaria decumbens), crabgrass, large (large crabgrass, Digitaria sanguinalis), crabgrass, Brazil (Brazilian crabgrass, Digitaria horizontalis), panicum, fall (fall panicum, Panicum dichotomiflorum), foxtail, giant (giant foxtail, Setaria faberii), foxtail, green (green foxtail, Setaria viridis), goosegrass (Eleusine indica), johnsongrass (Sorghum halepense), ragweed (common ragweed, Ambrosia elatior), barnyardgrass (Echinochloa crus-galli), sandbur (southern sandbur, Cenchrus echinatus), arrowleaf […] rhombifolia), ryegrass, Italian (Italian ryegrass, Lolium multiflorum), dayflower, VA (Virginia dayflower, Commelina virginica), field bindweed (Convolvulus arvensis), morningglory (Ipomoea coccinea), nightshade (eastern black nightshade, Solanum ptycanthum), kochia (Kochia scoparia), nutsedge, yellow (yellow nutsedge, Cyperus esculentus), cocklebur (common cocklebur, Xanthium strumarium), smartweed (ladysthumb smartweed, Polygonum Persicaria) and beggarticks (hairy beggarticks, Bidens pilosa), were planted into a silt loam soil and treated preemergence with test chemicals formulated in a non-phytotoxic solvent mixture which included a surfactant. Treated plants and controls were maintained in a greenhouse for 21 days, after which time all species were compared to controls and visually evaluated. Plant response ratings, summarized in Table E, are based on a scale of 0 to 100 where 0 is no effect and 100 is complete control. A dash (-) response means no test result.

lambsquarters = assay: Test E preemergence herbicide test; format: in vivo, Chenopodium album; set-up: key: 0 = no effect, 100 = complete control
Excerpt: as §1

surinam grass = assay: Test E preemergence herbicide test; format: in vivo, Brachiaria decumbens; set-up: key: 0 = no effect, 100 = complete control
Excerpt: as §1

ryegrass, Italian = assay: Test E preemergence herbicide test; format: in vivo, Lolium multiflorum; set-up: key: 0 = no effect, 100 = complete control
Excerpt: as §1

galium = assay: Test D pre-/postemergence herbicide test; format: in vivo, Galium aparine; settings: for Plant response rating: Galium, scale 0 to 100; for Plant response rating, Galium: scale 0 to 100 (0 no effect, 100 complete control)
Excerpt: (§2) Seeds of plant species selected from bluegrass (annual bluegrass, Poa annua), blackgrass (Alopecurus myosuroides), canarygrass (littleseed canarygrass, Phalaris minor), chickweed (common chickweed, Stellaria media), galium (catchweed bedstraw, Galium aparine), bromegrass, downy (downy bromegrass, Bromus tectorum), field poppy (Papaver rhoeas), field violet (Viola arvensis), foxtail, green (green foxtail, Setaria viridis), deadnettle (henbit deadnettle, Lamium amplexicaule), ryegrass, Italian (Italian ryegrass, Lolium multiflorum), kochia (Kochia scoparia), lambsquarters (Chenopodium album), oilseed rape (Brassica napus), pigweed (Amaranthus retroflexus), chamomile (scentless chamomile, Matricaria inodora), Russian thistle (Salsola kali), speedwell (bird's-eye speedwell, Veronica persica), barley, spring (spring barley, Hordeum vulgare), wheat, spring (spring wheat, Triticum aestivum), buckwheat, wild (wild buckwheat, Polygonum convolvulus), mustard, wild (wild mustard, Sinapis arvensis), oat, wild (wild oat, Avena fatua), radish, wild (wild radish, Raphanus raphanistrum), […]), barley, winter (winter barley, Hordeum vulgare), and wheat, winter (winter wheat, Triticum aestivum) were planted into a silt loam soil and treated preemergence with test chemicals formulated in a non-phytotoxic solvent mixture which included a surfactant. At the same time, these species were planted in pots containing Redi-Earth® planting medium (Scotts Company, 14111 Scottslawn Road, Marysville, Ohio 43041) comprising spaghnum peat moss, vermiculite, wetting agent and starter nutrients and treated with postemergence applications of the test chemicals formulated in the same manner. Plants ranged in height from 2 to 18 cm (1- to 4-leaf stage). Treated plants and controls were maintained in a controlled growth environment for 7 to 21 days after which time all species were compared to controls and visually evaluated. Plant response ratings, summarized in Table D, are based on a scale of 0 to 100 where 0 is no effect and 100 is complete control. A dash (-) response means no test result.

mustard, wild = assay: Test D pre-/postemergence herbicide test; format: in vivo, Sinapis arvensis; settings: for Plant response rating: Mustard, Wild, scale 0 to 100; for Plant response rating, Mustard, Wild: scale 0 to 100 (0 no effect, 100 complete control)
Excerpt: as §2

monochoria = assay: Test F flood (paddy) test; format: in vivo, Monochoria vaginalis; settings: 21 d, scale 0-100
Excerpt: Three plastic pots (ca. 16-cm diameter) per rate were partially filled with sterilized Tama silt loam soil comprising a 35:50:15 ratio of sand, silt and clay and 2.6% organic matter. Separate plantings for each of the three pots were as follows. Seeds from the U.S. of monochoria (Monochoria vaginalis), sedge, umbrella (small-flower umbrella sedge, Cyperus difformis), bulrush, […] bulrush, Scirpus juncoides), and […] (purple […] coccinea), were planted into one 16-cm pot for each rate. Seeds from the U.S. of flatsedge, rice (rice flatsedge, Cyperus iria), sprangletop, Brdd. (bearded sprangletop, Leptochloa fascicularis), one stand of 9 or 10 water seeded rice seedlings (Rice, W.S. Jap, Oryza sativa cv. 'Japonica-[…]' or Rice, W.S. Ind, 'Indica'), and two stands of 3 or 4 seedlings of rice, transplanted (transplanted rice, Oryza sativa cv. 'Japonica-[…]') were planted into one 16-cm pot for each rate. Seeds from the U.S. of barnyardgrass (Echinochloa crus-galli), […] (common […], Alisma plantago-aquatica), and watergrass, late (late watergrass, Echinochloa oryzicola) were planted into one 16-cm pot for each rate. Plantings were sequential so that crop and weed species were at the 2.0 to 2.5-leaf stage at time of treatment. Potted plants were grown in a greenhouse with day/night temperature settings of 30/27° C., and supplemental balanced lighting was provided to maintain a 16-h photoperiod. Test pots were maintained in the greenhouse until test completion. At time of treatment, test pots were flooded to 3 cm above the soil surface, treated by application of test compounds directly to the paddy water, and then maintained at that water depth for the duration of the test. Effects of treatments on rice and weeds were visually evaluated by comparison to untreated controls after 21 d. Plant response ratings, summarized in Table F, are based on a scale of 0 to 100 where 0 is no effect and 100 is complete control. A dash (-) response means no test result.

Row | SMILES | Plant response rating (galium; Postemergence, 16 g ai/ha) | Plant response rating (galium; Postemergence, 31 g ai/ha) | Plant response rating (galium; Postemergence, 62 g ai/ha) | Plant response rating (galium; Postemergence, 125 g ai/ha) | Plant response rating (galium; Postemergence, 250 g ai/ha) | Plant response rating, Galium (galium; Preemergence, 31 g ai/ha) | Plant response rating, Galium (galium; Preemergence, 62 g ai/ha) | Plant response rating (galium; Preemergence, 250 g ai/ha) | Plant response rating (mustard, wild; Postemergence, 16 g ai/ha) | Plant response rating (mustard, wild; Postemergence, 31 g ai/ha) | Plant response rating (mustard, wild; Postemergence, 62 g ai/ha) | Plant response rating (mustard, wild; Postemergence, 125 g ai/ha) | Plant response rating, Mustard, Wild (mustard, wild; Preemergence, 31 g ai/ha) | Plant response rating, Mustard, Wild (mustard, wild; Preemergence, 62 g ai/ha) | Plant response rating (mustard, wild; Preemergence, 250 g ai/ha) | Plant response rating, Monochoria (monochoria; 125 g ai/ha) | Plant response rating, Monochoria (monochoria; 250 g ai/ha) | Plant response rating, Monochoria (monochoria; 500 g ai/ha) | other results
1 | O=C1NCC(c2ccc(C(F)(F)F)cc2)C1C(=O)Nc1ccc(F)c(F)c1F (centres unmarked) [Compound 232] | – | – | – | – | – | – | – | – | – | – | – | – | – | – | – | – | – | – | Plant response rating, Soybean (soybean; 31 g ai/ha): 0; Plant response rating, Soybean (soybean; 62 g ai/ha): 0; Plant response rating, Soybean (soybean; 125 g ai/ha): 0; Plant response rating, Soybean (soybean; 250 g ai/ha): 0; Plant response rating, Lambsquarters (lambsquarters; 31 g ai/ha): 95; Plant response rating, Lambsquarters (lambsquarters; 62 g ai/ha): 98; Plant response rating, Lambsquarters (lambsquarters; 125 g ai/ha): 100; Plant response rating, Lambsquarters (lambsquarters; 250 g ai/ha): 98; Plant response rating, Surinam Grass (surinam grass; 31 g ai/ha): 40; Plant response rating, Surinam Grass (surinam grass; 62 g ai/ha): 50; Plant response rating, Surinam Grass (surinam grass; 125 g ai/ha): 70; Plant response rating, Surinam Grass (surinam grass; 250 g ai/ha): 98; Plant response rating, Ryegrass, Italian (ryegrass, Italian; 31 g ai/ha): 0; Plant response rating, Ryegrass, Italian (ryegrass, Italian; 62 g ai/ha): 10; Plant response rating, Ryegrass, Italian (ryegrass, Italian; 125 g ai/ha): 20; Plant response rating, Ryegrass, Italian (ryegrass, Italian; 250 g ai/ha): 40
2 | O=C1NCC(c2ccc(F)c(F)c2)C1C(=O)Nc1cccc(F)c1 (racemic) [Compound 12] | 0 | 0 | 15 | 20 | 25 | 0 | 0 | 10 | 0 | 10 | 40 | 100 | 0 | 0 | 70 | – | – | – | Plant response rating, Galium (galium; Preemergence, 16 g ai/ha): 0; Plant response rating (galium; Preemergence, 125 g ai/ha): 0; Plant response rating, Mustard, Wild (mustard, wild; Preemergence, 16 g ai/ha): 0; Plant response rating (mustard, wild; Preemergence, 125 g ai/ha): 20
3 | CN1CC(c2ccc(F)cc2)C(C(=O)Nc2cccc(F)c2F)C1=O (centres unmarked) [Compound 271] | – | – | – | – | – | – | – | – | – | – | – | – | – | – | – | 100 | 100 | 100 | Plant response rating, Monochoria (monochoria; 64 g ai/ha): 85
4 | O=C1NCC(c2ccc(F)cc2)C1C(=O)Nc1ccccc1F (racemic) [Compound 16] | – | – | – | – | – | – | – | – | – | – | – | – | – | – | – | – | – | – | Plant response rating, Soybean (soybean; 16 g ai/ha): 0; Plant response rating, Soybean (soybean; 31 g ai/ha): 0; Plant response rating, Soybean (soybean; 62 g ai/ha): 0; Plant response rating, Soybean (soybean; 125 g ai/ha): 0; Plant response rating, Soybean (soybean; 250 g ai/ha): 0; Plant response rating, Lambsquarters (lambsquarters; 16 g ai/ha): 0; Plant response rating, Lambsquarters (lambsquarters; 31 g ai/ha): 0; Plant response rating, Lambsquarters (lambsquarters; 62 g ai/ha): 0; Plant response rating, Lambsquarters (lambsquarters; 250 g ai/ha): 0; Plant response rating, Surinam Grass (surinam grass; 16 g ai/ha): 0; Plant response rating, Surinam Grass (surinam grass; 31 g ai/ha): 0; Plant response rating, Surinam Grass (surinam grass; 62 g ai/ha): 20; Plant response rating, Surinam Grass (surinam grass; 125 g ai/ha): 35; Plant response rating, Surinam Grass (surinam grass; 250 g ai/ha): 60; Plant response rating, Ryegrass, Italian (ryegrass, Italian; 16 g ai/ha): 0; Plant response rating, Ryegrass, Italian (ryegrass, Italian; 31 g ai/ha): 0; Plant response rating, Ryegrass, Italian (ryegrass, Italian; 62 g ai/ha): 0; Plant response rating, Ryegrass, Italian (ryegrass, Italian; 125 g ai/ha): 0; Plant response rating, Ryegrass, Italian (ryegrass, Italian; 250 g ai/ha): 30
5 | O=C1NCC(c2cc(F)c(F)c(F)c2)C1C(=O)Nc1ccccc1C(F)(F)F (racemic) [Compound 33] | 0 | 0 | 0 | 0 | 0 | – | – | – | 0 | 0 | 0 | 0 | – | – | – | – | – | – | Plant response rating (mustard, wild; Postemergence, 250 g ai/ha): 0
6 | O=C1NCC(c2cccc(C(F)(F)F)c2)C1C(=O)Nc1cccc(F)c1F (centres unmarked) [Compound 241] | – | – | – | – | – | 20 | 25 | 80 | – | – | – | – | 10 | 15 | 25 | – | – | – | Plant response rating, Galium (galium; Preemergence, 125 g ai/ha): 35; Plant response rating, Mustard, Wild (mustard, wild; Preemergence, 125 g ai/ha): 15
7 | O=C1NCC(c2ccc(C(F)(F)F)c(F)c2)C1C(=O)Nc1cccc(F)c1F (racemic) [Compound 247] | – | – | – | – | – | – | – | – | – | – | – | – | – | – | – | 70 | 70 | 75 | Plant response rating, Monochoria (monochoria; 1000 g ai/ha): 75; Plant response rating, Monochoria (monochoria; 2000 g ai/ha): 75
8 | O=C1NCC(c2cccc(C(F)(F)F)c2)C1C(=O)Nc1ccc(F)cc1F (racemic) [Compound 207] | – | – | – | – | – | 55 | 60 | 20 | – | – | – | – | 10 | 25 | 30 | 65 | 100 | 100 | Plant response rating, Galium (galium; Preemergence, 125 g ai/ha): 45; Plant response rating, Mustard, Wild (mustard, wild; Preemergence, 125 g ai/ha): 25
9 | O=C1NCC(c2cc(F)c(F)c(F)c2)C1C(=O)Nc1ccccc1F (racemic) [Compound 34] | 0 | 0 | 0 | 0 | 0 | – | – | – | 0 | 0 | 0 | 10 | – | – | – | – | – | – | Plant response rating (mustard, wild; Postemergence, 250 g ai/ha): 20
10 | O=C1NCC(c2cccc(C(F)(F)F)c2)C1C(=O)Nc1ccccc1F (racemic) [Compound 3] | – | – | – | – | – | – | – | – | – | – | – | – | – | – | – | – | 90 | 100 | –
